Laboratory results published in US20150148235A1, “HERBICIDE-RESISTANT SUNFLOWER PLANTS WITH MULTIPLE HERBICIDE RESISTANT ALLELES OF AHASL1 AND METHODS OF USE” (NIDERA S.A., priority 2013, published 2015).

System: sunflower hybrids and lines (A122T, A205V, A205V/A122T)
Assay: Field trial North Dakota 2006, phytotoxicity ratings after imazamox or imazapyr, Example 3
Type: in vivo, Helianthus annuus
Experimental: • Spray volume: 10 gallons per acre (GPA) (or 100 liters/ha) for backpack sprayer or 20 GPA (or 200 liters/ha) for tractor mounted boom • Growth Stage at Herbicide Application: 2-4 leaves
Entry 15 (WT Maintainer line) was left unsprayed in all treatment blocks.
Phytotoxicity ratings were assessed at 7 and 21 days following herbicide application.
The data was subjected to an ANOVA analysis and the means from the 3 repetitions are presented in Table 7 (phytotoxicity at 7 days post-treatment) and Table 8 (phytotoxicity at 21 days post-treatment).

Compound: COCc1cnc(C2=NC(C)(C(C)C)C(=O)N2)c(C(=O)O)c1 (centres unmarked) [imazamox]
- Phytotoxicity Rating (% Crop Injury) (1-hybrid (WT × IMI restorer, A205 hetero), 50 g ai/ha + 0.25% NIS, 7 DAT): 8.3%
- Phytotoxicity Rating (% Crop Injury) (1-hybrid (WT × IMI restorer, A205 hetero), 50 g ai/ha + 0.25% NIS, 21 DAT): 6.7%
- Phytotoxicity Rating (% Crop Injury) (1-hybrid (WT × IMI restorer, A205 hetero), 100 g ai/ha + 0.25% NIS, 7 DAT): 35.0%
- Phytotoxicity Rating (% Crop Injury) (1-hybrid (WT × IMI restorer, A205 hetero), 100 g ai/ha + 0.25% NIS, 21 DAT): 25.0%
- Phytotoxicity Rating (% Crop Injury) (1-hybrid (WT × IMI restorer, A205 hetero), 200 g ai/ha + 0.25% NIS, 7 DAT): 48.3%
- Phytotoxicity Rating (% Crop Injury) (1-hybrid (WT × IMI restorer, A205 hetero), 200 g ai/ha + 0.25% NIS, 21 DAT): 73.3%
- Phytotoxicity Rating (% Crop Injury) (3-hybrid (WT × IMI restorer, A205 hetero), 50 g ai/ha + 0.25% NIS, 7 DAT): 11.7%
- Phytotoxicity Rating (% Crop Injury) (3-hybrid (WT × IMI restorer, A205 hetero), 50 g ai/ha + 0.25% NIS, 21 DAT): 11.7%
- Phytotoxicity Rating (% Crop Injury) (3-hybrid (WT × IMI restorer, A205 hetero), 100 g ai/ha + 0.25% NIS, 7 DAT): 46.7%
- Phytotoxicity Rating (% Crop Injury) (3-hybrid (WT × IMI restorer, A205 hetero), 100 g ai/ha + 0.25% NIS, 21 DAT): 46.7%
- Phytotoxicity Rating (% Crop Injury) (3-hybrid (WT × IMI restorer, A205 hetero), 200 g ai/ha + 0.25% NIS, 7 DAT): 60.0%
- Phytotoxicity Rating (% Crop Injury) (3-hybrid (WT × IMI restorer, A205 hetero), 200 g ai/ha + 0.25% NIS, 21 DAT): 76.7%
- Phytotoxicity Rating (% Crop Injury) (4-line (IMI Restorer, A205 homo), 50 g ai/ha + 0.25% NIS, 7 DAT): 6.7%
- Phytotoxicity Rating (% Crop Injury) (4-line (IMI Restorer, A205 homo), 50 g ai/ha + 0.25% NIS, 21 DAT): 5.0%
- Phytotoxicity Rating (% Crop Injury) (4-line (IMI Restorer, A205 homo), 100 g ai/ha + 0.25% NIS, 7 DAT): 6.7%
- Phytotoxicity Rating (% Crop Injury) (4-line (IMI Restorer, A205 homo), 100 g ai/ha + 0.25% NIS, 21 DAT): 6.7%
- Phytotoxicity Rating (% Crop Injury) (4-line (IMI Restorer, A205 homo), 200 g ai/ha + 0.25% NIS, 7 DAT): 18.3%
- Phytotoxicity Rating (% Crop Injury) (4-line (IMI Restorer, A205 homo), 200 g ai/ha + 0.25% NIS, 21 DAT): 15.0%
- Phytotoxicity Rating (% Crop Injury) (6-hybrid (IMI CMS × IMI restorer, A205 homo), 50 g ai/ha + 0.25% NIS, 7 DAT): 5.0%
- Phytotoxicity Rating (% Crop Injury) (6-hybrid (IMI CMS × IMI restorer, A205 homo), 50 g ai/ha + 0.25% NIS, 21 DAT): 0.0%
- Phytotoxicity Rating (% Crop Injury) (6-hybrid (IMI CMS × IMI restorer, A205 homo), 100 g ai/ha + 0.25% NIS, 7 DAT): 8.3%
- Phytotoxicity Rating (% Crop Injury) (6-hybrid (IMI CMS × IMI restorer, A205 homo), 100 g ai/ha + 0.25% NIS, 21 DAT): 3.3%
- Phytotoxicity Rating (% Crop Injury) (6-hybrid (IMI CMS × IMI restorer, A205 homo), 200 g ai/ha + 0.25% NIS, 7 DAT): 26.7%
- Phytotoxicity Rating (% Crop Injury) (6-hybrid (IMI CMS × IMI restorer, A205 homo), 200 g ai/ha + 0.25% NIS, 21 DAT): 21.7%
- Phytotoxicity Rating (% Crop Injury) (7-hybrid (WT-CMS × IMI restorer, A205 hetero), 50 g ai/ha + 0.25% NIS, 7 DAT): 13.3%
- Phytotoxicity Rating (% Crop Injury) (7-hybrid (WT-CMS × IMI restorer, A205 hetero), 50 g ai/ha + 0.25% NIS, 21 DAT): 3.3%
- Phytotoxicity Rating (% Crop Injury) (7-hybrid (WT-CMS × IMI restorer, A205 hetero), 100 g ai/ha + 0.25% NIS, 7 DAT): 43.3%
- Phytotoxicity Rating (% Crop Injury) (7-hybrid (WT-CMS × IMI restorer, A205 hetero), 100 g ai/ha + 0.25% NIS, 21 DAT): 40.0%
- Phytotoxicity Rating (% Crop Injury) (7-hybrid (WT-CMS × IMI restorer, A205 hetero), 200 g ai/ha + 0.25% NIS, 7 DAT): 56.7%
- Phytotoxicity Rating (% Crop Injury) (7-hybrid (WT-CMS × IMI restorer, A205 hetero), 200 g ai/ha + 0.25% NIS, 21 DAT): 78.3%
- Phytotoxicity Rating (% Crop Injury) (8-hybrid (WT × GM40 restorer, A122 hetero), 50 g ai/ha + 0.25% NIS, 7 DAT): 13.3%
- Phytotoxicity Rating (% Crop Injury) (8-hybrid (WT × GM40 restorer, A122 hetero), 50 g ai/ha + 0.25% NIS, 21 DAT): 6.7%
- Phytotoxicity Rating (% Crop Injury) (8-hybrid (WT × GM40 restorer, A122 hetero), 100 g ai/ha + 0.25% NIS, 7 DAT): 13.3%
- Phytotoxicity Rating (% Crop Injury) (8-hybrid (WT × GM40 restorer, A122 hetero), 100 g ai/ha + 0.25% NIS, 21 DAT): 11.7%
- Phytotoxicity Rating (% Crop Injury) (8-hybrid (WT × GM40 restorer, A122 hetero), 200 g ai/ha + 0.25% NIS, 7 DAT): 25.0%
- Phytotoxicity Rating (% Crop Injury) (8-hybrid (WT × GM40 restorer, A122 hetero), 200 g ai/ha + 0.25% NIS, 21 DAT): 28.3%
- Phytotoxicity Rating (% Crop Injury) (9-line (GM40 restorer, A122 homo), 50 g ai/ha + 0.25% NIS, 7 DAT): 1.7%
- Phytotoxicity Rating (% Crop Injury) (9-line (GM40 restorer, A122 homo), 50 g ai/ha + 0.25% NIS, 21 DAT): 0.0%
- Phytotoxicity Rating (% Crop Injury) (9-line (GM40 restorer, A122 homo), 100 g ai/ha + 0.25% NIS, 7 DAT): 5.0%
- Phytotoxicity Rating (% Crop Injury) (9-line (GM40 restorer, A122 homo), 100 g ai/ha + 0.25% NIS, 21 DAT): 0.0%
- Phytotoxicity Rating (% Crop Injury) (9-line (GM40 restorer, A122 homo), 200 g ai/ha + 0.25% NIS, 7 DAT): 10.0%
- Phytotoxicity Rating (% Crop Injury) (9-line (GM40 restorer, A122 homo), 200 g ai/ha + 0.25% NIS, 21 DAT): 3.3%
- Phytotoxicity Rating (% Crop Injury) (10-hybrid (IMI CMS × GM40 restorer, A205/A122 hetero/double), 50 g ai/ha + 0.25% NIS, 7 DAT): 3.3%
- Phytotoxicity Rating (% Crop Injury) (10-hybrid (IMI CMS × GM40 restorer, A205/A122 hetero/double), 50 g ai/ha + 0.25% NIS, 21 DAT): 0.0%
- Phytotoxicity Rating (% Crop Injury) (10-hybrid (IMI CMS × GM40 restorer, A205/A122 hetero/double), 100 g ai/ha + 0.25% NIS, 7 DAT): 3.3%
- Phytotoxicity Rating (% Crop Injury) (10-hybrid (IMI CMS × GM40 restorer, A205/A122 hetero/double), 100 g ai/ha + 0.25% NIS, 21 DAT): 0.0%
- Phytotoxicity Rating (% Crop Injury) (10-hybrid (IMI CMS × GM40 restorer, A205/A122 hetero/double), 200 g ai/ha + 0.25% NIS, 7 DAT): 10.0%
